# Experimental data from US20210261621A1, “Preparation of Dilipid Polymixins and Use Thereof as Antimicrobial Adjuvants” (priority 2018, published 2021).
# Where “and” joins values, the source holds several entries; their conditions need not be identical. Identical values can stand only once. Like-named read-outs stand apart in the source and are kept apart here. Positions of bridges follow the written chain, without caps; N, C: chain ends. Non-standard residues stand in square brackets, D forms with d. Residues, ends and D or L forms follow the SMILES beside them. *: point of attachment. Octanoyl = CCCCCCCC(=O)*; Dab = NCC[C@H](N)C(=O)O
# Key:
# [1] = system: pig erythrocytes
# [2] = system: P. aeruginosa PAO1; set-up: MICDrug / MICDrug in combo / MIC of adjuvant in combo: unit not given beside the values
# [3] = system: P. aeruginosa CANWARD-2011 96846; format: cell-based, Pseudomonas aeruginosa
# How it was run: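 CLSI microdilution, MHB, 18 h at 37° C. against ~5×10^5 CFU/mL inoculum; patient isolates sourced from […] surveillance, reference strain from ATCC.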
# [4] = system: P. aeruginosa; assay: MIC comparison over the P. aeruginosa strains tested; format: cell-based, Pseudomonas aeruginosa; conditions: all eleven P. aeruginosa strains tested (Table 2)
# Excerpt: Specifically, addition of another lipid component to the amine side-chain of Dab1 reduced polymyxin's activity against Escherichia coli, P. aeruginosa, Stenotrophomonas maltophilia, A. baumannii, Klebsiella pneumoniae and Enterobacter cloacae. However, the reduction of activity against P. aeruginosa was not as drastic relative to other Gram-negative pathogens. […] We believe that this selectivity for P. aeruginosa is due to differences in exopolysaccharides and lipopolysaccharides between Gram-negative bacteria. This finding may imply the possibility of developing antipseudomonal polymyxins for pathogen-specific therapy.
# The in vitro antibacterial activity of the compounds studied were assessed by broth microdilution susceptibility testing following CLSI guidelines. Bacterial cultures were grown overnight prior to the assay. The overnight grown cultures were diluted in saline to 0.5 McFarland turbidity, followed by 1:50 dilution in Mueller-Hinton broth (MHB) for inoculation to a final concentration of approximately 5×10^5 colony forming units/mL. Testing was performed on 96-well plates where the tested compounds were 2-fold serially diluted in MHB and incubated with equal volumes of bacterial inoculum at 37° C. for 18 h. […] Wells containing MHB with or without bacterial cells were used as positive or negative control, respectively.
smiles,measurement,setting,value
"CCCCCCCC(=O)NCC[C@H](NC(=O)CCCCCCC)C(=O)N[C@H](C(=O)N[C@@H](CCN)C(=O)N[C@H]1CCNC(=O)[C@H]([C@@H](C)O)NC(=O)[C@H](CCN)NC(=O)[C@H](CCN)NC(=O)[C@H](CC(C)C)NC(=O)[C@@H](Cc2ccccc2)NC(=O)[C@H](CCN)NC1=O)[C@@H](C)O [Compound 2, Dioctanoic Acid (Di-C8) Polymyxin] (Octanoyl-[Dab](Octanoyl)T[Dab][Dab][Dab][dF]L[Dab][Dab]T; lactam 4-C)",% Hemolysis at 512 μg/mL of polymyxin,[1],6.2%
same,"MIC of adjuvant alone (MIC1, MIC2, MIC3, MIC4, MIC5, MICPMBN)","[2]; adjuvant alone, one value per checkerboard, in µg/mL",8 and 4
same,Interpretation,[2]; combination with Aztreonam,"Additive (An FIC index of ≤0.5, 0.5<x≤4, or >4 denotes for synergistic, additive or antagonistic interaction, respectively)"
same,Interpretation,[2]; combination with Ceftazidime,"Additive (An FIC index of ≤0.5, 0.5<x≤4, or >4 denotes for synergistic, additive or antagonistic interaction, respectively)"
same,Interpretation,[2]; combination with Chloramphenicol,"Synergy (An FIC index of ≤0.5, 0.5<x≤4, or >4 denotes for synergistic, additive or antagonistic interaction, respectively)"
same,Interpretation,[2]; combination with Ciprofloxacin,"Additive (An FIC index of ≤0.5, 0.5<x≤4, or >4 denotes for synergistic, additive or antagonistic interaction, respectively)"
same,Interpretation,[2]; combination with Clindamycin,"Synergy (An FIC index of ≤0.5, 0.5<x≤4, or >4 denotes for synergistic, additive or antagonistic interaction, respectively)"
same,Interpretation,[2]; combination with Doripenem,"Additive (An FIC index of ≤0.5, 0.5<x≤4, or >4 denotes for synergistic, additive or antagonistic interaction, respectively)"
same,Interpretation,[2]; combination with Doxycycline,"Additive (An FIC index of ≤0.5, 0.5<x≤4, or >4 denotes for synergistic, additive or antagonistic interaction, respectively)"
same,Interpretation,[2]; combination with Fosfomycin,"Additive (An FIC index of ≤0.5, 0.5<x≤4, or >4 denotes for synergistic, additive or antagonistic interaction, respectively)"
same,Interpretation,[2]; combination with Gentamicin,"Additive (An FIC index of ≤0.5, 0.5<x≤4, or >4 denotes for synergistic, additive or antagonistic interaction, respectively)"
same,Interpretation,[2]; combination with Linezolid,"Additive (An FIC index of ≤0.5, 0.5<x≤4, or >4 denotes for synergistic, additive or antagonistic interaction, respectively)"
same,Interpretation,[2]; combination with Meropenem,"Additive (An FIC index of ≤0.5, 0.5<x≤4, or >4 denotes for synergistic, additive or antagonistic interaction, respectively)"
same,Interpretation,[2]; combination with Minocycline,"Synergy (An FIC index of ≤0.5, 0.5<x≤4, or >4 denotes for synergistic, additive or antagonistic interaction, respectively)"
same,Interpretation,[2]; combination with Moxifloxacin,"Additive (An FIC index of ≤0.5, 0.5<x≤4, or >4 denotes for synergistic, additive or antagonistic interaction, respectively)"
same,Interpretation,[2]; combination with Novobiocin,"Synergy (An FIC index of ≤0.5, 0.5<x≤4, or >4 denotes for synergistic, additive or antagonistic interaction, respectively)"
same,Interpretation,[2]; combination with Piperacillin,"Additive (An FIC index of ≤0.5, 0.5<x≤4, or >4 denotes for synergistic, additive or antagonistic interaction, respectively)"
same,Interpretation,[2]; combination with Pleuromutilin,"Additive (An FIC index of ≤0.5, 0.5<x≤4, or >4 denotes for synergistic, additive or antagonistic interaction, respectively)"
same,Interpretation,[2]; combination with Rifampicin,"Additive (An FIC index of ≤0.5, 0.5<x≤4, or >4 denotes for synergistic, additive or antagonistic interaction, respectively)"
same,Interpretation,[2]; combination with Streptomycin,"Additive (An FIC index of ≤0.5, 0.5<x≤4, or >4 denotes for synergistic, additive or antagonistic interaction, respectively)"
same,Interpretation,[2]; combination with Tobramycin,"Additive (An FIC index of ≤0.5, 0.5<x≤4, or >4 denotes for synergistic, additive or antagonistic interaction, respectively)"
same,Interpretation,[2]; combination with Trimethoprim,"Additive (An FIC index of ≤0.5, 0.5<x≤4, or >4 denotes for synergistic, additive or antagonistic interaction, respectively)"
same,Interpretation,[2]; combination with Vancomycin,"Additive (An FIC index of ≤0.5, 0.5<x≤4, or >4 denotes for synergistic, additive or antagonistic interaction, respectively)"
same,MIC of adjuvant in combo,[2]; in combination with Aztreonam,(4)
same,MIC of adjuvant in combo,[2]; in combination with Ceftazidime,(2)
same,MIC of adjuvant in combo,[2]; in combination with Chloramphenicol,(2)
same,MIC of adjuvant in combo,[2]; in combination with Ciprofloxacin,(4)
same,MIC of adjuvant in combo,[2]; in combination with Clindamycin,(2)
same,MIC of adjuvant in combo,[2]; in combination with Doripenem,(4)
same,MIC of adjuvant in combo,[2]; in combination with Doxycycline,(4)
same,MIC of adjuvant in combo,[2]; in combination with Fosfomycin,(4)
same,MIC of adjuvant in combo,[2]; in combination with Gentamicin,(0.125)
same,MIC of adjuvant in combo,[2]; in combination with Linezolid,(4)
same,MIC of adjuvant in combo,[2]; in combination with Meropenem,(4)
same,MIC of adjuvant in combo,[2]; in combination with Minocycline,(2)
same,MIC of adjuvant in combo,[2]; in combination with Moxifloxacin,(2)
same,MIC of adjuvant in combo,[2]; in combination with Novobiocin,(2)
same,MIC of adjuvant in combo,[2]; in combination with Piperacillin,(4)
same,MIC of adjuvant in combo,[2]; in combination with Pleuromutilin,(2)
same,MIC of adjuvant in combo,[2]; in combination with Rifampicin,(1)
same,MIC of adjuvant in combo,[2]; in combination with Streptomycin,(4)
same,MIC of adjuvant in combo,[2]; in combination with Tobramycin,(0.125)
same,MIC of adjuvant in combo,[2]; in combination with Trimethoprim,(4)
same,MIC of adjuvant in combo,[2]; in combination with Vancomycin,(4)
same,MIC,[3],8 µg/mL
same,fold lower MIC than colistin,[4],4-8 fold
